Data on 15 compounds can be found in patent US9120805B2, “Substituted pyrrolo[1,2-A]pyrazin-1-ones and pyrazolo[1,5-A]pyrazin-4-ones as inhibitors of tankyrase and poly(ADP-ribose)polymerase activity” (Merck Patent GmbH, priority 2012, dated 2015).

pIC50: −log10 of the molar value. Some results are limits rather than exact numbers.

As usually defined, the pIC50 is the IC50 on a negative log10 scale, so that one unit is a factor of ten.

Experiment [1] deals with T1, GST-tagged Tankyrase-2 (873-1166 aa) (Homo sapiens, UniProt Q9H2K2).
T1 construct: GST-tagged Tankyrase-2 (873-1166 aa)
T1 sequence (Q9H2K2 873-1166): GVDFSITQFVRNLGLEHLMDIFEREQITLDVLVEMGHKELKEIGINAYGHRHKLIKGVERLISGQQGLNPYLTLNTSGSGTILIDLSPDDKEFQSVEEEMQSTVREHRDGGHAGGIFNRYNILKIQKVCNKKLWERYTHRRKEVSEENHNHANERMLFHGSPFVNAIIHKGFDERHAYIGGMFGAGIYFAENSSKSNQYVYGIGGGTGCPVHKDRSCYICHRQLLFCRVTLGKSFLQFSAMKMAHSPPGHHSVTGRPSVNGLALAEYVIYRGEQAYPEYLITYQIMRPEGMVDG
The experiment can be described thus: Tankyrase 2 autoparsylation assay (HTRF enzyme assay). The class given is biochemical. As for the experimental part:
(§1) Biochemical Activity Testing of Tankyrase 1 and 2: Autoparsylation Assay
(§2) The autoparsylation assay is run in two steps: the enzymatic reaction in which GST-tagged Tankyrase-1, resp Tankyrase-2 transferred biotinylated ADP-ribose to itself from biotinylated NAD as co-substrate and the detection reaction where a time resolved FRET between cryptate labelled anti-GST bound to the GST tag of the enzyme and Xlent® labelled-streptavidin bound the biotin-parsylation residue is analysed. The autoparsylation activity was detectable directly via the increase in HTRF signal.
(§3) The autoparsylation assay is performed as 384-well HTRF® (Cisbio, Codolet, France) assay format in Greiner low volume nb 384-well microtiter plates and is used for high throughput screen. 250 nM GST-tagged Tankyrase-1 (1023-1327 aa), respectively about 250 nM GST-tagged Tankyrase-2 (873-1166 aa) and 5 μM bio-NAD (Biolog, Life science Inst., Bremen, Germany) as co-substrate are incubated in a total volume of 5 μl (50 mM HEPES, 4 mM Mg-chloride, 0.05% Pluronic F-68, 1.4 mM DTT, 0.5% DMSO, pH 7.7) in the absence or presence of the test compound (10 dilution concentrations) for 90 min at 30° C. The reaction is stopped by the addition of 1 μl 50 mM EDTA solution. 2 μl of the detection solution (1.6 μM SA-Xlent® (Cisbio, Codolet, France), 7.4 nM Anti-GST-K® (Eu-labelled anti-GST, Cisbio, Codolet, France) in 50 mM HEPES, 800 mM KF, 0.1% BSA, 20 mM EDTA, 0.1% CHAPS, pH 7.0) are added. After 1 h incubation at room temperature the HTRF is measured with an Envision multimode reader (Perkin Elmer LAS Germany GmbH) at excitation wavelength 340 nm (laser mode) and emission wavelengths 615 nm and 665 nm. The ratio of the emission signals is determined. The full value used is the inhibitor-free reaction. The pharmacological zero value used is XAV-939 (Tocris) in a final concentration of 5 μM. The inhibitory values (IC50) are determined using either the program Symyx Assay Explorer® or Condosseo® from GeneData.
(In general: Time-resolved FRET reads energy transfer from a long-lived donor to a nearby acceptor.)

For experiment [2], the target named is T2, GST-tagged Tankyrase-1 (1023-1327 aa) (Homo sapiens, UniProt O95271).
T2 construct: GST-tagged Tankyrase-1 (1023-1327 aa)
T2 sequence (O95271 1023-1327): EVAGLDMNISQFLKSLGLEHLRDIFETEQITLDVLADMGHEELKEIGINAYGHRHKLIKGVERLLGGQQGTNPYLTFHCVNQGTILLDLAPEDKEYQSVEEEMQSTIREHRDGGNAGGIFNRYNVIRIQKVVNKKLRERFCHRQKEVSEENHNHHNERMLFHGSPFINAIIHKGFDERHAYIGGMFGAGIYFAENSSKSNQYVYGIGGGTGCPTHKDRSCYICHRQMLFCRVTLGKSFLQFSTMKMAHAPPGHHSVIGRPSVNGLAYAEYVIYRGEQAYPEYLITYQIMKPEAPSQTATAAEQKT
Put plainly: Tankyrase 1 autoparsylation assay (HTRF enzyme assay). The class given is biochemical. The protocol:
as §1, §2, §3

In the case of `O=c1[nH]c(-c2ccccc2)cn2cccc12` [Compound A2, 3-phenyl-2H-pyrrolo[1,2-a]pyrazin-1-one], the pIC50 in experiment [1] and in experiment [2] was 5.52 to 6.52 each time.
For the compound `O=c1[nH]c(-c2ccc(Br)cc2)cn2cccc12` [Compound A24, 3-(4-bromo-phenyl)-2H-pyrrolo[1,2-a]pyrazin-1-one], the pIC50 in experiment [1] and in experiment [2] was above 6.52 each time.
Consider `Cn1cc(-c2cn3cccc3c(=O)[nH]2)cn1` [Compound A14, 3-(1-methyl-1H-pyrazol-4-yl)-2H-pyrrolo[1,2-a]pyrazin-1-one], for which the pIC50 in experiment [1] and in experiment [2] was 5.52 to 6.52 each time.
As for `Cc1nc(-c2ccc(-c3cn4nc(CO)cc4c(=O)[nH]3)cc2)no1` [Compound A21, 2-hydroxymethyl-6-[4-(5-methyl-[1,2,4]oxadiazol-3-yl)-phenyl]-5H-pyrazolo[1,5-a]pyrazin-4-one], the negative logarithm of the IC50 (pIC50) in experiment [1] is 4.30 to 5.52; in experiment [2], 5.52 to 6.52.
Take `Cc1cc2c(=O)[nH]c(-c3cnn(C(C)(C)C)c3)cn2n1` [Compound A52, 2-methyl-6-(1-tert-butyl-1H-pyrazol-4-yl)-5H-pyrazolo[1,5-a]pyrazin-4-one]: the pIC50 is 4.30 to 5.52 in experiment [1] and 5.52 to 6.52 in experiment [2].
Compound `O=c1[nH]c(-c2ccc(Br)cc2)cn2nc(C(F)(F)F)cc12` [Compound A67, 6-(4-bromo-phenyl)-2-trifluoromethyl-5H-pyrazolo[1,5-a]pyrazin-4-one] had a pIC50 in experiment [2] of 5.52 to 6.52.
In the case of `CC(C)Oc1ccc(-c2cn3nc(CO)cc3c(=O)[nH]2)cc1` [Compound A20, 2-hydroxymethyl-6-(4-isopropoxy-phenyl)-5H-pyrazolo[1,5-a]pyrazin-4-one], the negative-log IC50 (pIC50) in experiment [1] was 4.30 to 5.52; in experiment [2], 5.52 to 6.52.
Taken in the same sequence, the figures for `O=c1[nH]c(-c2ccc(OC(F)(F)F)cc2)cn2nccc12` [Compound A16, 6-(4-trifluoromethoxy-phenyl)-5H-pyrazolo[1,5-a]pyrazin-4-one] were 4.30 to 5.52 and 5.52 to 6.52.
On to `O=c1[nH]c(-c2ccc(-c3cnn(CCOC4CCCCO4)c3)cc2)cn2cccc12` (stereo not shown) [Compound A31, 3-(4-{1-[2-(tetrahydro-pyran-2-yloxy)-ethyl]-1H-pyrazol-4-yl}-phenyl)-2H-pyrrolo[1,2-a]pyrazin-1-one], for which the negative-log IC50 (pIC50) is 5.52 to 6.52 in experiment [1] and above 6.52 in experiment [2].
Compound `CC(C)n1cc(-c2cn3nc(CO)cc3c(=O)[nH]2)cn1` [Compound A22, 2-hydroxymethyl-6-(1-isopropyl-1H-pyrazol-4-yl)-5H-pyrazolo[1,5-a]pyrazin-4-one] gave a pIC50 in experiment [2] of 4.30 to 5.52.
As to `CC1(C)CCC(C)(C)c2cc(-c3cn4cccc4c(=O)[nH]3)ccc21` [Compound A5, 3-(5,5,8,8-tetramethyl-5,6,7,8-tetrahydro-naphthalen-2-yl)-2H-pyrrolo[1,2-a]pyrazin-1-one], in experiment [2], the negative logarithm of the IC50 (pIC50) was 4.30 to 5.52.
On the same count and under the same terms, next, `O=c1[nH]c(-c2ccc(OC(F)(F)F)cc2)cn2nc(CCl)cc12` [Compound A33, 2-chloromethyl-6-(4-trifluoromethoxy-phenyl)-5H-pyrazolo[1,5-a]pyrazin-4-one]: 5.52 to 6.52.
With `O=c1[nH]c(-c2ccc(Br)cc2)cn2nc(CBr)cc12` [Compound A36, 2-bromomethyl-6-(4-bromo-phenyl)-5H-pyrazolo[1,5-a]pyrazin-4-one], the negative-log IC50 (pIC50) in experiment [1] was 4.30 to 5.52; in experiment [2], 5.52 to 6.52.
For the compound `CC(C)(C)c1ccc(-c2cn3nc(C(F)(F)F)cc3c(=O)[nH]2)cc1` [Compound A55, 6-(4-tert-butyl-phenyl)-2-trifluoromethyl-5H-pyrazolo[1,5-a]pyrazin-4-one], the pIC50 in experiment [2] was above 6.52.
On to `O=c1[nH]c(-c2ccc(Br)cc2)cn2cc(F)cc12` [Compound A58, 3-(4-bromo-phenyl)-7-fluoro-2H-pyrrolo[1,2-a]pyrazin-1-one], for which the negative logarithm of the IC50 (pIC50) in experiment [1] and in experiment [2] was above 6.52 throughout.
